In US20260199240A1, “BIOMEDICAL APPLICATIONS OF AZOBENZENE-BASED LIPIDOIDS” (Trustees of Tufts College, priority 2022, published 2026):

How the values were obtained:
[1] = Photoisomerization of Azo lipidoids in DMSO (UV-Vis absorption); assay type: physicochemical; settings: for UV irradiation time until spectral changes level off (photostationary state): UV 365 nm, 5.40 mW/cm^2; for additional Vis irradiation time that reverses the spectral change: Vis >400 nm, 20 mW/cm^2
Method: Azo lipidoid was prepared as 50 μM solution in anhydrous dimethyl sulfoxide (DMSO). The sample was irradiated with UV (365 nm for 6 s) and Vis light (>400 nm for 6 s), respectively. The power densities for 365 and >400 nm was 5.40 and 20 mW/cm^2, respectively.
SAzo lipidoid was prepared as 30 μM solution in anhydrous dimethyl sulfoxide (DMSO). TAzo lipidoid was prepared as 15 μM solution in DMSO. These samples were irradiated with UV (365 nm for 6 s) and Vis light (>400 nm for 6 s), respectively. The power densities for 365 and >400 nm are 5.40 and 20 mW/cm^2, respectively.

[2] = tested on: 4T1 tumor cells; test: Cell cytotoxicity using CCK-8 assay; assay type: cell-based, mouse
Method: In vitro cytotoxicity was assessed by the standard CCK-8 assay. To test the cytotoxicity of DSPC-Azo@GOx with or without UV/Vis light irradiation, 4T1 tumor cells were seeded in the basolateral chamber of a 24-well transwell plate at a density of 10^5 cells per well and cultured in 5% CO2 at 37° C. for overnight (16 h). Then, DSPC-Azo@GOx was added to the upper chamber. Then, the samples were irradiated using the UV/Vis light (irradiated for 5 min every 8 hours). After three irradiation, the cell viability was measured using CCK-8 kit according to the manufacturer's instruction.

[3] = Critical micelle concentration in aqueous solution; assay type: physicochemical
[4] = helper lipid; cited from earlier work

Compound | UV irradiation time until spectral changes level off (photostationary state) [1] [s] | additional Vis irradiation time that reverses the spectral change [1] [s] | Tm (phase transition temperature) [4] [°C] | headgroup surface area [4] | also measured
CCCCCCCCCCCC(=O)Nc1ccc(/N=N/c2ccc(C[N+](C)(C)C)cc2)cc1 [Azo lipidoid] | 6 | 6 |  |  | dose dependent cell viability ([2]; 4T1 cells, 24 h incubation): relatively good biocompatibility; critical micelle concentration (CMC) [3]: ≈ 30 μM
CCCCCCCCCCCCCC(=O)OC[C@H](COP(=O)([O-])OCC[N+](C)(C)C)OC(=O)CCCCCCCCCCCCC [DMPC, dimyristoylphosphatidylcholine] |  |  | 24.1 | ~ 0.665 nm^2 | 
CCCCCCCCCCCC(=O)Nc1ccc(/N=N/c2ccc(C[N+](C)(C)CC[N+](C)(C)Cc3ccc(/N=N/c4ccc(NC(=O)CCCCCCCCCCC)cc4)cc3)cc2)cc1 [TAzo lipidoid] | 6 | 6 |  |  | 
Glucose Oxidase [GOx] |  |  |  |  | cell viability with versus without UV/Vis light treatment ([2]; dialysis setup, 24 h): no significant differences in cell viabilities
CCCCCCCCCCCCCCCCCC(=O)OC[C@H](COP(=O)([O-])OCC[N+](C)(C)C)OC(=O)CCCCCCCCCCCCCCCCC [DSPC, distearoylphosphatidylcholine] |  |  | 55 | ~ 0.430 nm^2 | 
CCCCCCCCCCCCCCCC(=O)OC[C@H](COP(=O)([O-])OCC[N+](C)(C)C)OC(=O)CCCCCCCCCCCCCCC [DPPC, dipalmitoylphosphatidylcholine] |  |  | 41.3 | ~ 0.665 nm^2 | 
